For test [1], the target named is T1, Genome polyprotein (dengue virus type 2, UniProt P29990). It counts as functional, Thailand/16681/1984.
The target of test [2] is T1, Genome polyprotein. It counts as functional, Thailand/16681/1984. This is another data set of the same source.

pIC50: −log10 of the molar value. Several values for one entry are separate records, joined by “and”; a condition that tells them apart may be missing. Equal entries are not always repeated. Some results are limits rather than exact numbers.

T1 sequence (P29990 1346-1475 limits assumed): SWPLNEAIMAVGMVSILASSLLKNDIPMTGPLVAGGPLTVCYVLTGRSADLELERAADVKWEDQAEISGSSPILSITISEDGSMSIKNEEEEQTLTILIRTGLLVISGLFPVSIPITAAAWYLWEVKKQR
T1 sequence (P29990 1476-2093 limits assumed): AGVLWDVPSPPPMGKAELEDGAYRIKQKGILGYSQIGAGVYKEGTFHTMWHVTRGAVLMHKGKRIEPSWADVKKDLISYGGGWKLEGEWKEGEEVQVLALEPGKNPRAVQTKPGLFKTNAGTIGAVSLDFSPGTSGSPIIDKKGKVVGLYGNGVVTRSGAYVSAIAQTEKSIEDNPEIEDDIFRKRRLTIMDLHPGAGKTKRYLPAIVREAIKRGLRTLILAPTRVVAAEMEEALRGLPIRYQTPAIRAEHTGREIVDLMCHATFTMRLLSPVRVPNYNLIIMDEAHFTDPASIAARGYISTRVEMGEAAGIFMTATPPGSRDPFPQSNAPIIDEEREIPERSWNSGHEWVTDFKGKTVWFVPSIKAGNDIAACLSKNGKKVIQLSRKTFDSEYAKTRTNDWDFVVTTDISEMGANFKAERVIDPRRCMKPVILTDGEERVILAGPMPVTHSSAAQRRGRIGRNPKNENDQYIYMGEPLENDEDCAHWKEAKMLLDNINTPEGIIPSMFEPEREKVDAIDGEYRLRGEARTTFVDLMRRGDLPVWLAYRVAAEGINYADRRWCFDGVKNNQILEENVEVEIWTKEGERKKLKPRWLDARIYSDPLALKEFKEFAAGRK

Turning to `NCc1cccc(NC(=O)c2cc(Cl)cc3c2cnn3CC2CC2)c1`, the pIC50 on Genome polyprotein [1] and at Genome polyprotein [2] was below 4.00 throughout.
As to `C[C@H]1CCC[C@H](C(=O)Nc2cccc(CN)c2)O1`, the pIC50 at Genome polyprotein [1] and at Genome polyprotein [2] was below 4.00 throughout.
With `NCc1cccc(NC(=O)[C@H]2C[C@@H](C(F)(F)F)C[C@@H](C(F)(F)F)C2)c1`, the pIC50 against Genome polyprotein [1] and on Genome polyprotein [2] was below 4.00 in each case.
Turning to `Cn1cncc1COc1cccc([C@H](NC(=O)OCc2ccccc2)C(=O)Nc2cccc(CN)c2)c1`, the negative-log IC50 (pIC50) (as a rule, the IC50 on a negative log10 scale, so that one unit is a factor of ten) on Genome polyprotein [1] was below 4.00; on Genome polyprotein [2], 4.18.
With `Cc1ccc(S(=O)(=O)N2Cc3ccccc3C[C@@H](C(=O)Nc3cccc(CN)c3)C2)cc1`, the figures for the pIC50 against Genome polyprotein [1] and against Genome polyprotein [2] were below 4.00 and 4.12, respectively.
`O=C(N[C@H]1[C@H]2CCCCC[C@H]2[C@H]1C(=O)Nc1cccc(C2CCNCC2)c1)OCc1ccccc1`: the pIC50 against Genome polyprotein [1] was 4.49; at Genome polyprotein [2], 4.75 and 4.28.
In the case of `NCCc1ccc(NC(=O)c2cc(Cl)cc(CN)c2)cc1`, the pIC50 against Genome polyprotein [1] and on Genome polyprotein [2] was below 4.00 each time.
For the compound `COCC=Cc1cccc([C@@H](NC(=O)OCc2ccccc2)C(=O)Nc2cccc(CN)c2)c1`, the pIC50 against Genome polyprotein [1] was below 4.00; against Genome polyprotein [2] it was 4.25.
The corresponding values for `NCc1cccc(NC(=O)c2cc(N)cc(Cl)c2)c1` are below 4.00 and below 4.00.
The corresponding values for `c1cncc(CN2CC[C@H](NCc3c[nH]c4ccccc34)C2)c1` are below 4.00 and below 4.00.
Taken in the same sequence, the figures for `O=C(Nc1cc(Cl)cc(C(=O)Nc2cccc(-c3cc[nH]n3)c2)c1)OCc1ccccc1` were below 4.00 and below 4.00.
Turning to `NCCc1cc(Cl)cc(C(=O)Nc2cccc(CN)c2)c1`, the pIC50 at Genome polyprotein [1] and against Genome polyprotein [2] was below 4.00 in each case.
Turning to `Cn1cc([C@@H]2C[C@H](C(=O)Nc3cccc(CN)c3)CC(=O)N2)cn1`, the pIC50 on Genome polyprotein [1] and on Genome polyprotein [2] was below 4.00 throughout.
On to `NCc1cccc(NC(=O)[C@@H](NC(=O)OCc2ccccc2)c2cccc(-c3ccc(CN)cc3F)c2)c1`, for which the pIC50 at Genome polyprotein [1] and on Genome polyprotein [2] was below 4.00 each time.
As for `Cc1cc(C(=O)Nc2cccc(CN)c2)c2c(C)nn(CC(=O)NC(C)C)c2n1`, the pIC50 on Genome polyprotein [1] and at Genome polyprotein [2] was below 4.00 each time.
On to `N[C@@H](CCO)c1cccc(NC(=O)c2cc(Cl)cc(NC(=O)OCc3ccccc3)c2)c1`, for which the pIC50 on Genome polyprotein [1] and against Genome polyprotein [2] was below 4.00 in each case.
Consider `CN(C)[C@@H]1CCC[C@@H](C(=O)Nc2cccc(CN)c2)C1`, for which the pIC50 on Genome polyprotein [1] and against Genome polyprotein [2] was below 4.00 in each case.
Turning to `C[C@@H](N)c1cccc(NC(=O)[C@H]2[C@H]3CCCCC[C@H]3[C@H]2NC(=O)OCc2ccccc2)c1`, the negative logarithm of the IC50 (pIC50) at Genome polyprotein [1] is 4.54; against Genome polyprotein [2] it was 4.87 and 4.86.
For `COc1ccc(-c2cccc([C@@H](NC(=O)OCc3ccccc3)C(=O)Nc3cccc(CN)c3)c2)cn1`, the pIC50 at Genome polyprotein [1] and against Genome polyprotein [2] was below 4.00 throughout.
Turning to `NCc1cccc(NC(=O)[C@@H]2[C@H](N)[C@@H]3CCCCC[C@@H]32)c1`, the negative logarithm of the IC50 (pIC50) against Genome polyprotein [1] and at Genome polyprotein [2] was below 4.00 each time.
In the case of `Cn1cc(NC(=O)c2cc(Cl)cc(NC(=O)OCc3ccccc3)c2)cn1`, the pIC50 at Genome polyprotein [1] and at Genome polyprotein [2] was below 4.00 each time.
Regarding `NCc1cccc(CNC(=O)[C@H]2[C@H]3CCCCC[C@H]3[C@H]2NC(=O)OCc2ccccc2)c1`, the pIC50 is 4.10 against Genome polyprotein [1]; 4.84 and 4.20 and 4.35 against Genome polyprotein [2].
Regarding `NCc1cccc(NC(=O)[C@@H]2CCC[C@]3(CCNC3=O)C2)c1`, the pIC50 against Genome polyprotein [1] and against Genome polyprotein [2] was below 4.00 throughout.
Turning to `COC(=O)c1cc(NC(=O)OCc2ccccc2)cc(C(=O)Nc2cccc(CN)c2)c1`, the pIC50 against Genome polyprotein [1] and at Genome polyprotein [2] was below 4.00 in each case.
As for `NCc1cccc(NC(=O)c2c(F)c(Cl)cc(NC(=O)OCc3ccccc3)c2F)c1`, the pIC50 on Genome polyprotein [1] and against Genome polyprotein [2] was below 4.00 in each case.
As to `O=C(Nc1cc(Cl)cc(C(=O)Nc2nccc([C@H]3CCCCN3)n2)c1)OCc1ccccc1`, the pIC50 against Genome polyprotein [1] and at Genome polyprotein [2] was below 4.00 in each case.
`CC(C)[C@@H]1CC[C@@H](C)C[C@H]1C(=O)Nc1cccc(CN)c1`: the negative-log IC50 (pIC50) against Genome polyprotein [1] and against Genome polyprotein [2] was below 4.00 throughout.
On to `NCc1cccc(NC(=O)c2cc(Cl)cc(C(N)=O)c2)c1`, for which the pIC50 against Genome polyprotein [1] and against Genome polyprotein [2] was below 4.00 in each case.
For the compound `NCc1cccc(NC(=O)[C@@]23CCC[C@H](C2)N3C(=O)OCc2ccccc2)c1`, the pIC50 on Genome polyprotein [1] and against Genome polyprotein [2] was below 4.00 throughout.
Turning to `CN(C)Cc1ccc(NC(=O)c2cc(Cl)cc(NC(=O)OCc3ccccc3)c2)cc1`, the pIC50 against Genome polyprotein [1] and against Genome polyprotein [2] was below 4.00 each time.
Take `NCc1ccc(NC(=O)[C@H]2[C@H]3CCCCC[C@H]3[C@H]2NC(=O)OCc2ccccc2)cc1`: the pIC50 was below 4.00 against Genome polyprotein [1] and 4.24 on Genome polyprotein [2].
For the compound `NCc1cccc(NC(=O)[C@@H]2CCC[C@H](OC(F)(F)F)C2)c1`, the pIC50 on Genome polyprotein [1] and against Genome polyprotein [2] was below 4.00 in each case.
Take `Cc1cc(C(=O)Nc2cccc(CN)c2)cc(NCC(F)(F)F)n1`: the pIC50 against Genome polyprotein [1] and on Genome polyprotein [2] was below 4.00 each time.
`Cc1cc(C(=O)Nc2cccc(CN)c2)c2nc(C)n(C)c2n1`: the pIC50 against Genome polyprotein [1] and on Genome polyprotein [2] was below 4.00 each time.
On to `Cc1cc(C)c([C@@H](CC(=O)Nc2cccc(CN)c2)NC(=O)OCc2ccccc2)cc1C`, for which the pIC50 at Genome polyprotein [1] is 4.93; at Genome polyprotein [2] it was 5.15 and 5.14.
Regarding `Cn1cc(-c2cccc([C@@H](NC(=O)OCc3ccccc3)C(=O)Nc3cccc(CN)c3)c2)ccc1=O`, the negative logarithm of the IC50 (pIC50) on Genome polyprotein [1] and at Genome polyprotein [2] was below 4.00 throughout.
As to `CC(F)(F)c1cccc(NC(=O)c2cc(Cl)cc(NC(=O)OCc3ccccc3)c2)c1`, the pIC50 at Genome polyprotein [1] and against Genome polyprotein [2] was below 4.00 throughout.
Turning to `O=C(Nc1cc(Cl)cc(C(=O)Nc2cccc(-c3nnn[nH]3)c2)c1)OCc1ccccc1`, the pIC50 was 4.96 on Genome polyprotein [1] and 4.87 against Genome polyprotein [2].
`C[C@@H]1C[C@@H](C(=O)Nc2cccc(CN)c2)CCO1`: the pIC50 at Genome polyprotein [1] and at Genome polyprotein [2] was below 4.00 throughout.
`CN(C)[C@@H]1CCC[C@H](C(=O)Nc2cccc(CN)c2)C1`: the negative logarithm of the IC50 (pIC50) against Genome polyprotein [1] and on Genome polyprotein [2] was below 4.00 in each case.
Consider `C[C@@H]1CCC[C@H](C(=O)Nc2cccc(CN)c2)O1`, for which the negative-log IC50 (pIC50) at Genome polyprotein [1] and against Genome polyprotein [2] was below 4.00 each time.
Regarding `NCc1cccc(NC(=O)c2cc(Br)cc3[nH]ccc23)c1`, the negative-log IC50 (pIC50) against Genome polyprotein [1] and against Genome polyprotein [2] was below 4.00 in each case.
For the compound `Cc1cc(C(F)(F)F)nc(C(=O)Nc2cccc(CN)c2)n1`, the pIC50 against Genome polyprotein [1] and against Genome polyprotein [2] was below 4.00 throughout.
On to `NCc1cccc(Oc2ccc(S(=O)(=O)Nc3ccc(Cl)cc3C(=O)NCC(F)(F)F)cc2)c1`, for which the negative-log IC50 (pIC50) at Genome polyprotein [1] and against Genome polyprotein [2] was below 4.00 each time.
Regarding `NCc1cccc(NC(=O)[C@H]2COCC3(CCC3)O2)c1`, the pIC50 against Genome polyprotein [1] and against Genome polyprotein [2] was below 4.00 in each case.
Consider `NCc1cccc(NC(=O)c2cc(Cl)cc3[nH]ncc23)c1`, for which the pIC50 against Genome polyprotein [1] and against Genome polyprotein [2] was below 4.00 each time.
For `CC[C@@H](Cc1nnn[nH]1)c1ccc(NC(=O)c2cc(Cl)cc(NC(=O)OCc3ccccc3)c2)cc1`, the negative-log IC50 (pIC50) against Genome polyprotein [1] is 5.09 and 5.06; against Genome polyprotein [2], 5.05.
For the compound `O=C(Nc1cc(Cl)cc(C(=O)Nc2cccc(Cc3nn[nH]n3)c2)c1)OCc1ccccc1`, the pIC50 on Genome polyprotein [1] was below 4.00; at Genome polyprotein [2] it was 4.66.
For `CC(=O)NCc1cccc(NC(=O)c2cc(Cl)cc(NC(=O)OCc3ccccc3)c2)c1`, the pIC50 at Genome polyprotein [1] and at Genome polyprotein [2] was below 4.00 throughout.
Consider `C=C(C)c1cccc([C@@H](NC(=O)OCc2ccccc2)C(=O)Nc2cccc(CN)c2)c1`, for which the pIC50 on Genome polyprotein [1] is below 4.00; on Genome polyprotein [2], 4.52.
The corresponding values for `NCc1cccc(NC(=O)c2cccc3c2CCC3)c1` are below 4.00 and below 4.00.
The corresponding values for `CNCc1cc(Cl)cc(C(=O)Nc2cccc(CN)c2)c1` are below 4.00 and below 4.00.
`NCCc1cccc(-c2cccc([C@@H](NC(=O)OCc3ccccc3)C(=O)Nc3cccc(CN)c3)c2)c1`: the pIC50 is below 4.00 against Genome polyprotein [1] and 4.47 at Genome polyprotein [2].
As to `NCc1cccc(NC(=O)[C@@H](NC(=O)OCc2ccccc2)c2cccc(-c3ccc(N)nc3)c2)c1`, the pIC50 against Genome polyprotein [1] and against Genome polyprotein [2] was below 4.00 each time.
As to `CC(C)(C)OC(=O)NCc1cc(Br)cc(NC(=O)c2cc(Cl)cc(NC(=O)OCc3ccccc3)c2)c1`, the pIC50 at Genome polyprotein [1] and against Genome polyprotein [2] was below 4.00 each time.
Consider `C[C@@H](NCc1c[nH]c2ccccc12)c1cscn1`, for which the pIC50 against Genome polyprotein [1] and on Genome polyprotein [2] was below 4.00 throughout.
For the compound `NCc1cccc(NC(=O)c2cc(Br)cnc2OCC2CC2)c1`, the pIC50 on Genome polyprotein [1] and at Genome polyprotein [2] was below 4.00 throughout.
In the case of `NCc1cc(NS(=O)(=O)c2ccc(Oc3ccccc3Cl)cc2)ccc1Cl`, the negative logarithm of the IC50 (pIC50) against Genome polyprotein [1] and on Genome polyprotein [2] was below 4.00 each time.
In the case of `CCn1ncc(-c2noc3nc(C)cc(C(=O)Nc4cccc(CN)c4)c23)c1C`, the pIC50 on Genome polyprotein [1] and against Genome polyprotein [2] was below 4.00 throughout.
Turning to `NCc1cccc(NC(=O)[C@H]2CCc3nnc(C4CC4)n3C2)c1`, the pIC50 against Genome polyprotein [1] and at Genome polyprotein [2] was below 4.00 throughout.
For the compound `COc1ccc2c(c1)c(C(=O)Nc1cccc(CN)c1)c(C)n2C1CCCC1`, the pIC50 at Genome polyprotein [1] and against Genome polyprotein [2] was below 4.00 each time.
As for `CN1CC=C(c2cccc([C@@H](NC(=O)OCc3ccccc3)C(=O)Nc3cccc(CN)c3)c2)CC1`, the pIC50 against Genome polyprotein [1] and against Genome polyprotein [2] was below 4.00 throughout.
`NCc1cccc(NC(=O)c2cc(Cl)cc(CN3CCOCC3)c2)c1`: the pIC50 against Genome polyprotein [1] and at Genome polyprotein [2] was below 4.00 each time.
As for `CCOc1cccc(-c2ccc(S(=O)(=O)Nc3cc(F)c(Cl)cc3C(=O)O)cc2)c1`, the pIC50 at Genome polyprotein [1] is 5.14; at Genome polyprotein [2], 5.29.
The corresponding values for `NCc1cc(Cl)cc(C(=O)Nc2ccc3c(c2)CNC3)c1` are below 4.00 and below 4.00.
The corresponding values for `C[C@@H](N)c1cc(Cl)cc(C(=O)Nc2cccc(CN)c2)c1` are below 4.00 and below 4.00.
For the compound `O=C(Nc1cc(Cl)cc(C(=O)Nc2cccc(-n3nn[nH]c3=O)c2)c1)OCc1ccccc1`, the pIC50 is 5.06 and 5.03 against Genome polyprotein [1]; 4.96 and 4.94 on Genome polyprotein [2].
